This passage reports EC50 and melting point results from patent publication US20120189579A1 (priority 2009, published 2012).

pEC50: −log10 of the molar value.

In data set [1] the target is T1, HCV NS5BΔ21/Gal4-DBD fusion protein (Hepatitis C virus genotype 1b, UniProt Q9WMX2).
T1 construct: The protein was expressed with a 21 amino acid C-terminal deletion to remove transmembrane domain; expressed in transfected cells; host or cells: Huh-7 (transient transfection)
Nature of the data set: 3D-SCREEN assay (NS5B reporter gene assay in Huh-7 cells). Type of data set: cell-based, HCV genotype 1b. As to the method:
(§1) Human Hepatoma Huh-7 cell line was maintained in DMEM/HAMF-12 supplemented with 10% SVF, 4 mM glutamine, […] Na pyruvate, 1% penistreptomycine. HCV replicon containing Huh-7 cell lines Huh-9.13 and Luc Neo ET (Reblikon) were maintained in DMEM supplemented with 10% SVF, 2 mM glutamine, and 1×NEAA, 100 U/ml penicillin, and 100 μg/ml streptomycine. Replicon cells were maintained in medium supplemented with 1 mg/ml G418 for replicon Huh-9.13 and 0.5 mg/ml for Luc Neo et replicon unless indicated otherwise. Huh-7 and HCV replicon cell lines were maintained at 37° C. and 5% CO2 in a humidified atmosphere. Cells were dissociated at sub confluence with trypsin EDTA 1×.
cDNA encoding HCV NS5B genotype 1b, was cloned in frame with Gal4-DNA Binding Domain. The protein was expressed with a 21 amino acid C-terminal deletion to remove transmembrane domain. Expression of NS5BΔ21/Gal4 DBD fusion protein was under control of SV40 early promoter. 3D-Sensor peptide was cloned in frame with VP16 activation domain. Expression of 3D-Sensor/VP16 AD fusion protein was under control of CMV promoter. Expression of the firefly luciferase reporter gene was inducible by the [Target protein/conformation sensitive peptide/VP16AD] complex.
It is a single-target, cell based assay. Briefly, expression of a reporter gene depends on the interaction of a short peptide, thereafter named 3D-Sensor, and native conformation of the target protein. Whenever the conformation of the target protein is modified, interaction between 3D-sensor and target protein is disrupted and reporter gene is not expressed anymore. Conformation modifiers are identified by loss of expression of reporter gene. NS5B 3D-Screen platform was generated in Huh-7 cell lines by transient transfection of three expression vectors encoding respectively • (i) HCV NS5BΔ21/Gal4-DBD fusion protein • (ii) the 3D-sensor peptide 14/VP16 fusion protein • (iii) the firefly luciferase reporter gene
Huh-7 cells were dissociated the day before transfection and seeded in T175 flasks at a density of 10^7 cells in 30 ml culture medium. Equimolar ratios of vectors were transfected in cell according to optimized jetPEI transfection protocol (PolyPlus Transfection, Illkirch, France) and 10 μg total DNA/10^6 cells. Transfection was performed for 2 hours at 37° C. and 5% CO2 in a humidified atmosphere. After two hours cells were dissociated and seeded in 96 wells plates at a density of 25,000 cells per well and 90 μl culture medium. 10 μl of compounds to be tested were added 2 hours after seeding. Final concentration of DMSO was 1%. Cells were incubated in the presence of compounds for 24 hours after which expression of firefly luciferase reporter gene was quantified. Briefly, culture medium was removed and cells were lysed by addition of 100 μl of lysis buffer containing 125 mM Tris Phosphate ph 7.8, 10 mM EDTA, 5 mM DTT, 50% glycerol and 5% Triton. Plates were vortexed 10 min at 1300 rpm. Cell lysat was transferred in OpaqueWhite Assay 96 well Flat Bottom plates. 100 μl of luciferin solution 1× were added to each well. Luciferin solution contained 40 mM Tris Phosphate ph 7.8, 0.2 mM EDTA, 67 mM DTT, 2.14 mM MgCl2, 5.4 mM MgSO4, 4.7×10^−4 M luciferin, 5.3×10^−4 M ATP and 2.7×10^−4 M Acetyl co enzyme A. Luminescence was immediately measured with Berthold Microlumat Plus LB 96V luminometer with an integration of 0.5 sec. Inhibition was calculated using the formula: % inhibition=(1−(read/average max))*100. Average max=signal in absence of compound

Data set [2] has as its system HCV replicon Luc Neo ET in Huh-7 cells. Nature of the data set: Replicon assay (Luc Neo ET replicon). The class given is cell-based. As to conditions: Hepatitis C virus, 72 hours with compound, firefly luciferase reporter, read-out: EC50—Replicon LucneoET. Here is the method:
as §1
Replicon Luc Neo ET is a bicistronic expression constructs (Lohmann et al, 1999, Science 285, 110-113). In brief, the structural genes of the HCV genome were replaced by heterologous sequences; the gene encoding the neomycin phosphotransferase (NPT) and the internal ribosome entry site (IRES) of the encephalomyocarditis virus (EMCV). The bicistronic construct is therefore composed of the following elements: HCV-IRES nucleotides 1-389, the NPT gene, the EMCV-IRES directing translation of downstream HCV sequences from NS2 or NS3 up to the authentic 3′ end of the genome. HCV Polyprotein harbours the cell culture adaptive mutations E1202G, T1280I, K1846T. G418-resistance is only possible with cells containing high amounts of replicon.
Cells were dissociated the day before addition of compounds and seeded in 96 well-plates at a final concentration of 77 777.77 cells·ml^−1·well^−2 in 90 μl final volume of culture medium per well and were maintained at 37° C. and 5% CO2 in a humidified atmosphere for 24 hours. 10 μl of compounds to be tested were added 24 hours after seeding. Final concentration of DMSO was 1%. Cells were incubated in the presence of compounds for 72 hours after which expression of firefly luciferase reporter gene was quantified. Briefly, culture medium was removed and cells were lysed by addition of 100 μl of lysis buffer containing 125 mM Tris Phosphate ph 7.8, 10 mM EDTA, 5 mM DTT, 50% glycerol and 5% Triton. Plates were vortexed 10 min at 1300 rpm. Cell lysat was transferred in OpaqueWhite Assay 96 well Flat Bottom plates. 100 μl of luciferin solution 1× were added to each well. Luciferin solution contained 40 mM Tris Phosphate ph 7.8, 0.2 mM EDTA, 67 mM DTT, 2.14 mM MgCl2, 5.4 mM MgSO4, 4.7×10^−4 M luciferin, 5.3×10^−4 M ATP and 2.7×10^−4 M Acetyl co enzyme A. Luminescence was immediately measured with Berthold Microlumat Plus LB 96V luminometer with an integration of 0.5 sec Inhibition was calculated using the formula:
% inhibition=1−[(RLUsample−RLUbackground)/(RLUsignal−RLUbackground)]
On the technique in general: Replicon systems follow genome replication, usually without infectious particles.

One may read the pEC50 as the negative decadic logarithm of the EC50, by convention in mol/L. As a reminder, the melting point is the temperature, or range, at which the solid turns liquid. In turn, `COC(=O)c1ccc(C2C(C(=O)c3ccc(C)cc3)=C(O)C(=O)N2c2ncc(S(=O)(=O)c3ccc([N+](=O)[O-])cc3)s2)cc1` (stereo not drawn) [Example 4, 4-{4-hydroxy-3-(4-methyl-benzoyl)-1-[5-(4-nitro-benzenesulfonyl)-thiazol-2-yl]-5-oxo-2,5-dihydro-1H-pyrrol-2-yl}-benzoic acid methyl ester] returned a melting point of 249 to 251 °C. The pEC50 in data set [1] was 5.00.

Turning to `Cc1ccc(C(=O)C2=C(O)C(=O)N(c3ncc(S(=O)(=O)N(C)C)s3)C2c2ccc(C(C)C)cc2)cc1` (stereo not drawn) [Example 39, 2-[3-hydroxy-5-(4-isopropyl-phenyl)-4-(4-methyl-benzoyl)-2-oxo-2,5-dihydro-pyrrol-1-yl]-thiazole-5-sulfonic acid dimethylamide], the melting point lay within 237 to 241 °C. In data set [1], this compound showed a pEC50 of 4.80.

Turning to `CC(C)c1ccc(C(=O)C2=C(O)C(=O)N(c3ncc(Sc4ccc([N+](=O)[O-])cc4)s3)C2c2ccc(OC(F)(F)F)cc2)cc1` (stereo not drawn) [Example 131, 3-hydroxy-4-(4-isopropyl-benzoyl)-1-[5-(4-nitro-phenylsulfanyl)-thiazol-2-yl]-5-(4-trifluoromethoxy-phenyl)-1,5-dihydro-pyrrol-2-one], the melting point was 238 °C. The negative logarithm of the EC50 (pEC50) in data set [1] is 4.89.

As for `COc1ccc(C(=O)C2=C(O)C(=O)N(c3nnc(C(C)C)s3)C2c2ccc(C(C)(C)C)cc2)cc1` (stereo not drawn) [Example 35, 5-(4-tert-butyl-phenyl)-3-hydroxy-1-(5-isopropyl-[1,3,4]thiadiazol-2-yl)-4-(4-methoxy-benzoyl)-1,5-dihydro-pyrrol-2-one], the melting point is 257 °C. The pEC50 in data set [1] is 5.40.

In the case of `Cc1ccc(C(=O)C2=C(O)C(=O)N(c3ncc(S(=O)(=O)c4ccc([N+](=O)[O-])cc4)s3)C2c2cccc(Cl)c2)cc1` (stereo not drawn) [Example 51], the figures for the pEC50 in data set [1] and in data set [2] were 5.15 and 5.00, respectively.

As to `CN(C)c1ccc(C(=O)C2=C(O)C(=O)N(c3ncc(S(=O)(=O)c4ccc([N+](=O)[O-])cc4)s3)C2c2ccc(C(C)(C)C)cc2)cc1` (stereo not drawn) [Example 55, 5-(4-tert-butyl-phenyl)-4-(4-dimethylamino-benzoyl)-3-hydroxy-1-[5-(4-nitro-benzenesulfonyl)-thiazol-2-yl]-1,5-dihydro-pyrrol-2-one], the pEC50 was 5.40 in data set [1] and 5.15 in data set [2].

On to `CC(C)(C)c1ccc(C2C(C(=O)c3ccc(Cl)cc3)=C(O)C(=O)N2c2ncc(S(=O)(=O)c3ccc([N+](=O)[O-])cc3)s2)cc1` (stereo not drawn) [Example 40], for which the figures for the pEC50 in data set [1] and in data set [2] were 5.30 and 4.55, respectively.

As to `Cc1ccc(C(=O)C2=C(O)C(=O)N(c3nnc(C)s3)C2c2ccc(C(C)C)cc2)cc1` (stereo not drawn) [Example 54], the pEC50 was 4.89 in data set [1] and 4.96 in data set [2].

Compound `CC(C)c1ccc(C(=O)C2=C(O)C(=O)N(c3ncc(S(=O)(=O)c4ccc([N+](=O)[O-])cc4)s3)C2c2ccc(C(F)(F)F)cc2)cc1` (stereo not drawn) [Example 126, 3-hydroxy-4-(4-isopropyl-benzoyl)-1-[5-(4-nitro-benzenesulfonyl)-thiazol-2-yl]-5-(4-trifluoromethyl-phenyl)-1,5-dihydro-pyrrol-2-one] yielded a melting point of 300 to 302 °C. Besides, the pEC50 in data set [1] was > 5.00.

Consider `COc1ccc(C(=O)C2=C(O)C(=O)N(c3nnc(C)s3)C2c2ccc(C(C)(C)C)cc2)cc1` (stereo not drawn) [Example 3], for which the pEC50 in data set [1] is 5.15; in data set [2], 4.82.

`COc1ccc(C(=O)C2=C(O)C(=O)N(c3nnc(C(F)(F)F)s3)C2c2ccc(C(C)(C)C)cc2)cc1` (stereo not drawn) [Example 26, 5-(4-tert-butyl-phenyl)-3-hydroxy-4-(4-methoxy-benzoyl)-1-(5-trifluoromethyl-[1,3,4]thiadiazol-2-yl)-1,5-dihydro-pyrrol-2-one] showed a melting point of 271 °C. The compound also had a pEC50 in data set [1] of 4.85.

`Cc1cnc(N2C(=O)C(O)=C(C(=O)c3ccc(C(C)C)cc3)C2c2ccc(C(F)(F)F)cc2)s1` (stereo not drawn) [Example 129, 3-hydroxy-4-(4-isopropyl-benzoyl)-1-(5-methyl-thiazol-2-yl)-5-(4-trifluoromethyl-phenyl)-1,5-dihydro-pyrrol-2-one]: the pEC50 in data set [1] and in data set [2] was > 5.00 throughout.

Consider `COc1ccc(C(=O)C2=C(O)C(=O)N(c3nnc(C)s3)C2c2ccc(OC(F)(F)F)cc2)cc1` (stereo not drawn) [Example 20, 3-hydroxy-4-(4-methoxy-benzoyl)-1-(5-methyl-[1,3,4]thiadiazol-2-yl)-5-(4-trifluoromethoxy-phenyl)-1,5-dihydro-pyrrol-2-one], for which the melting point lay in the range of 245 to 247 °C. Further, in data set [1], the pEC50 is 5.40.

In turn, `Cc1ccc(C(=O)C2=C(O)C(=O)N(c3ncc(S(=O)(=O)N4CCOCC4)s3)C2c2ccc(C(C)C)cc2)cc1` (stereo not drawn) [Example 41, 3-hydroxy-5-(4-isopropyl-phenyl)-4-(4-methyl-benzoyl)-1-[5-(morpholine-4-sulfonyl)-thiazol-2-yl]-1,5-dihydro-pyrrol-2-one] returned a melting point of 247 to 252 °C. In data set [1], this compound showed a pEC50 of 4.79.

Regarding `O=C(O)c1ccc(C2C(C(=O)c3ccco3)=C(O)C(=O)N2c2ncc(S(=O)(=O)c3ccc([N+](=O)[O-])cc3)s2)cc1` (stereo not drawn) [Example 112, 4-{3-(furan-2-carbonyl)-4-hydroxy-1-[5-(4-nitro-benzenesulfonyl)-thiazol-2-yl]-5-oxo-2,5-dihydro-1H-pyrrol-2-yl}-benzoic acid], the pEC50 in data set [1] and in data set [2] was > 5.00 in each case.

With `COc1ccc(C(=O)C2=C(O)C(=O)N(c3nnc(C)s3)C2c2ccc(Cl)c(Cl)c2)cc1` (stereo not drawn) [Example 31], the negative-log EC50 (pEC50) in data set [2] was 4.48.

Take `Cc1ccc(C(=O)C2=C(O)C(=O)N(c3ncc(S(=O)(=O)c4ccc([N+](=O)[O-])cc4)s3)C2c2ccc(C(C)C)cc2)cc1` (stereo not drawn) [Example 10]: the pEC50 in data set [1] was 5.70; in data set [2], 5.10.
